Source: patent US20240390581A1, “METHOD AND APPARATUS FOR A STEADY STATE INT[…] OF SEROTONERGIC DRUGS” (PSOULMED, LLC, priority 2021, published 2024)

Tests used:
[1] = Transfer rate constants of the Gallimore-Strassman two-compartment model, calculated from G-S Table 2; design: species or system human
Text: For consistency with the G-S model, referred to here as FIG. 1 is the (prior art) model from the 2016 paper by Gallimore Strassman (prior art), where: • k10 rate of elimination from the central compartment (min^−1) • k12 transfer rate from central to peripheral compartment (min^−1) • T same as k12 • k21 transfer rate from peripheral to central compartment (min^−1) • K1e transfer rate from central compartment to effect site (min^−1) • Ke0 rate of elimination of drug from the effect site (min^−1) E same as ke0 • CT plasma concentration (mg/ml) • RT rate at which drug reaches the effect site (mg/min) • [C] DMT concentration in the central compartment (mg/ml) • [P] DMT concentration in the peripheral compartment (mg/ml) […].
It should be appreciated that the notation used in the prior art (G-S) is very different from the notation used herein in developing the models in the present disclosure. In G-S (p. 5), E is used for the elimination rate, without it being made clear if this is the elimination rate from the effect site or from the central compartment. Also, T is used interchangeably with k12 from G-S FIG. 1. The extra parameters in G-S Table 2, Vc (L), Vp (L), Km (mg/L), Vm (mg/min), Q12 (L/min) are not defined, modulo a minor footnote (bottom of p. 4) stating that:

[2] = higher dose, 0.4 mg/kg bolus (G-S FIG. 2A); cited from earlier work
subject [3] = details: believed, not measured; cited from earlier work
infusion veins = experiment: Venous response to intravenous administration of DMT; assay type: in vivo
Text: A second, and perhaps more serious issue, with the Gallimore Strassman paper is the administration of DMT intravenously. […] This is especially true of serotonergic drugs which, as noted, can be phlebitic at the site of administration. This in combination with probable chemical irritation, even with iso-osmolar concentrations buffered to a physiologic pH (using DMT fumarate or similar salt), intravenous thrombophlebitis can occur at a rate

humans [4] = details: IV single bolus; cited from earlier work
humans [5] = details: cited from earlier work
subject [6] = experiment: Intramuscular bolus plus infusion of DMT, subject-reported effects; assay type: in vivo, human
Description: In intramuscular infusion, the muscle is first loaded which then diffuses into the peripheral soft tissues, the lymphatics and blood, and then the CNS. The result is a very gentle rise in effect, with the earliest effects usually noticed within the first 2 minutes, and the subject experiencing threshold effects somewhere between 5 and 15 minutes. The intensification of the experience is slow, and while there is some overshoot, it is quite manageable, and usually lasts for only minutes. The key here is turning the pump off when the ideal state is reached, or at the earliest sign of being above the ideal level and reporting when those levels have been achieved.
The same assumptions for IV infusion are made with IM infusion, a 75 kg individual who identifies smoking 25 mg of DMT as an ideal dose. A muscle should be chosen for access with the infusion needle. While any muscle will work, the most favorable option is probably the anterolateral thigh. This allows the patient to be positioned supine comfortably. If the anterolateral thigh is chosen, appropriate garments should be worn by the patient to expose the thigh in a manner that is suitable for access. […]
When the subject is ready, the bolus dose is administered over a short amount of time, preferably about 60 seconds, from time t=0 to t=1 minute. […]

[7] = cited from earlier work
vein = experiment: Additives to the intravenous DMT infusion, flow rate and venous injury; assay type: in vivo; details: magnesium 0.1 mg/mL to 100 mg/mL in DMT infusion or maintenance line
Text: In this respect, the inventors addressed the following goals: • 1. […] A method for combining goals 1 and/or 2 with nitroglycerine ointment on the vein to be cannulated prior to gaining intravenous access, which improves vein patency and dilution from blood flow as well as normal saline. • 4. A method for creating an injectable form of a DMT salt such as fumarate, or freebase DMT in a solution or suspension or emulsion in an iso-osmolar or near iso-osmolar carrier such as hyaluronic acid or polyethylene glycol, as to minimize molecular interaction with the walls and endothelium of the peripheral vasculature, while maintaining water soluble or miscible properties as to not adversely affect the pharmacokinetics. • 5. A method for utilizing goal 4, with any other drug or substance that may cause venous irritation, to minimize the risk of thrombophlebitis, such as nanoparticles or crystals in suspension, or similarly, chemotherapeutic drugs, anesthetic agents and the like.

[8] = inhaling vaporized or smoked DMT, or single IV bolus

Structure (SMILES): CN(C)CCc1c[nH]c2ccccc12 [DMT, N,N-dimethyltryptamine]
- k12, transfer rate from central to peripheral compartment ([1]; 0.2 mg/kg): 0.3286 min⁻¹
- k21, transfer rate from peripheral to central compartment ([1]; 0.2 mg/kg): 0.2 min⁻¹
- k12, transfer rate from central to peripheral compartment ([1]; 0.4 mg/kg): 0.6021 min⁻¹
- k21, transfer rate from peripheral to central compartment ([1]; 0.4 mg/kg): 0.1647 min⁻¹
- blood concentration [2]: 100 ng/mL
- CNS concentration equating to a full experience (subject [3]): roughly 100 ng/ml
- CNS concentration equating to a threshold experience (subject [3]): roughly 60 ng/ml
- venous effects of intravenous administration (infusion veins): causing vasoconstriction, phlebitis and eventual closing of the infusion veins
- onset of psychological effects (humans [4]): almost immediately after administration
- time by which psychological effects were almost completely resolved (humans [4]): ≤ 30 minutes
- time of peak psychological effects (humans [4]): 90 to 120 seconds
- duration of experience (humans [5]; [8]): 10 to 15 min
- time of peak experience (humans [5]; [8]): around 5 minutes
- effect of oral ingestion (humans [5]; oral ingestion, rapid metabolism by monoamine oxidase): virtually no effect
- time to earliest drug effects (subject [6]): ≤ 2 min
- time for drug effects to fully abate after pump is turned off (subject [6]; pump off): within about an hour or less
- biological half-life ([7]; in vivo): in the range of minutes
- half-life of injected DMT ([7]; injected): about 15 minutes

Structure (SMILES): [Mg+2] [magnesium]
- effect on venous injury (vein): decrease venous injury
